Laboratory results as given in US20260166128A1, “HUMAN AMYLIN ANALOG, AND DERIVATIVE THEREOF AND USE THEREOF” (priority 2022, published 2026).
Numbered stars: 1 amine (or outer) side, 2 acyl side, 3 side chain; on linkers, the order of the positions; unused ones are H or OH. Bridge positions count the residues as written; N and C are the ends. Square brackets hold non-standard residues; d marks the D form. Side chains are listed from the residue outwards. Peptide text beside a SMILES is read from it. * marks the point of attachment. C20 diacid = O=C(O)CCCCCCCCCCCCCCCCCCC(=O)*; C18 diacid = O=C(O)CCCCCCCCCCCCCCCCC(=O)*; γGlu = O=C(O)[C@H](CCC(=O)[*:2])N[*:1]; Hyp = O=C(O)[C@@H]1C[C@@H](O)CN1; Dab = NCC[C@H](N)C(=O)O; AEEA = NCCOCCOCC(=O)O

These compounds were tested against T1, human amylin receptor (Homo sapiens, UniProt O60896+P30988) (assay: Luciferase assay of amylin derivatives in amylin receptor/CRE-luc CHO cell line). Conditions: CHO-K1/Ga15/AMY3 CRE-luc cells, 24 hours incubation, F12 medium containing 10% FBS; read-out: EC50.
T1 construct: host or cells: CHO-K1/Ga15/AMY3 cells, further stably transfected with a CRE-luciferase plasmid
T1 sequence (P30988 25-474): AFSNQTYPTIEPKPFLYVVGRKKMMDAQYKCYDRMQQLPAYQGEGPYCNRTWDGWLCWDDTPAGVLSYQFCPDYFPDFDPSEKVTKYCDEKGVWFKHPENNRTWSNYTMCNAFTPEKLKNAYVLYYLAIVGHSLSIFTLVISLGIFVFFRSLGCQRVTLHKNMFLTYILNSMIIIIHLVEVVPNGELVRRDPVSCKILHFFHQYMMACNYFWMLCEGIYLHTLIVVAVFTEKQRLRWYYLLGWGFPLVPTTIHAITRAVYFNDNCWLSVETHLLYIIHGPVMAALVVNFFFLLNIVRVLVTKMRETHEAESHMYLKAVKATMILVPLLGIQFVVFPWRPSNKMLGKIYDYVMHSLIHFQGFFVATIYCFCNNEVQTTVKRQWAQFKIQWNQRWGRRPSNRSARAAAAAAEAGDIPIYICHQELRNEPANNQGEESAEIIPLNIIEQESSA
T1 sequence (O60896 24-148 partner): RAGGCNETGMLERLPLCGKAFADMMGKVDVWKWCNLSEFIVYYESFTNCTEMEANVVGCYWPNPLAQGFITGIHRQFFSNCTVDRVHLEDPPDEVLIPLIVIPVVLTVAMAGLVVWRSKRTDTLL
Assay type: cell-based
Description: The experiment was intended to detect the activity or efficacy of the amylin derivatives on a human amylin receptor in vitro by luciferase assay.
50 μL of growth medium (F12 medium containing 10% FBS) was added into each well of a white 96-well plate, and the stably transfected amylin/CRE-lue CHO cells were inoculated into the white 96-well plate at a density of about 20,000 cells/well for activity determination.

| EC50 | SMILES |
| --- | --- |
| 0.037 nM | CC[C@H](C)[C@H](NC(=O)[C@@H]1CCCN1C(=O)[C@H](Cc1c[nH]cn1)NC(=O)[C@H](CC(C)C)NC(=O)[C@H](CC(N)=O)NC(=O)[C@H](CC(N)=O)NC(=O)[C@H](CO)NC(=O)[C@H](CO)NC(=O)[C@H](Cc1c[nH]cn1)NC(=O)[C@H](CCCNC(=N)N)NC(=O)[C@H](CC(C)C)NC(=O)[C@H](Cc1ccccc1)NC(=O)[C@H](CC(=O)O)NC(=O)[C@H](C)NC(=O)[C@H](CC(C)C)NC(=O)[C@H](CCCNC(=N)N)NC(=O)[C@H](CCC(N)=O)NC(=O)[C@@H](NC(=O)[C@H](C)NC(=O)[C@@H]1CSSC[C@H](NC(=O)[C@H](CCCCN)NC(=O)CC[C@H](NC(=O)CCCCCCCCCCCCCCCCCCC(=O)O)C(=O)O)C(=O)N[C@@H](CC(N)=O)C(=O)N[C@@H]([C@@H](C)O)C(=O)N[C@@H](C)C(=O)N[C@@H]([C@@H](C)O)C(=O)N1)[C@@H](C)O)C(=O)N[C@@H](CC(C)C)C(=O)N1CCC[C@H]1C(=O)N1CCC[C@H]1C(=O)N[C@H](C(=O)N[C@@H](CC(N)=O)C(=O)N[C@H](C(=O)NCC(=O)N[C@@H](CO)C(=O)N[C@@H](CC(N)=O)C(=O)N[C@H](C(=O)N1C[C@H](O)C[C@H]1C(N)=O)[C@@H](C)O)C(C)C)[C@@H](C)O [PD159] ({C20 diacid-γGlu}-KCNTATCATQRLADFLRHSSNNLHPILPPTNVGSNT[Hyp]-NH2; disulfide 2-7) |
| 0.05 nM | CC[C@H](C)[C@H](NC(=O)[C@@H]1CCCN1C(=O)[C@H](CC(N)=O)NC(=O)[C@H](CC(C)C)NC(=O)[C@H](CC(N)=O)NC(=O)[C@H](CC(N)=O)NC(=O)[C@H](CO)NC(=O)[C@H](CO)NC(=O)[C@H](Cc1c[nH]cn1)NC(=O)[C@H](CCCNC(=N)N)NC(=O)[C@H](CC(C)C)NC(=O)[C@H](Cc1ccccc1)NC(=O)[C@H](CC(=O)O)NC(=O)[C@H](C)NC(=O)[C@H](CC(C)C)NC(=O)[C@H](CCCNC(=N)N)NC(=O)[C@H](CCC(N)=O)NC(=O)[C@@H](NC(=O)[C@H](C)NC(=O)[C@@H]1CSSC[C@H](NC(=O)[C@H](CCCCN)NC(=O)CC[C@H](NC(=O)CCCCCCCCCCCCCCCCCCC(=O)O)C(=O)O)C(=O)N[C@@H](CC(N)=O)C(=O)N[C@@H]([C@@H](C)O)C(=O)N[C@@H](C)C(=O)N[C@@H]([C@@H](C)O)C(=O)N1)[C@@H](C)O)C(=O)N[C@@H](CC(C)C)C(=O)N1CCC[C@H]1C(=O)N1CCC[C@H]1C(=O)N[C@H](C(=O)N[C@@H](CC(N)=O)C(=O)N[C@H](C(=O)NCC(=O)N[C@@H](CO)C(=O)N[C@@H](CC(N)=O)C(=O)N[C@H](C(=O)N1CCC[C@H]1C(N)=O)[C@@H](C)O)C(C)C)[C@@H](C)O [PD165] ({C20 diacid-γGlu}-KCNTATCATQRLADFLRHSSNNLNPILPPTNVGSNTP-NH2; disulfide 2-7 (inferred)) |
| 0.039 nM | CC[C@H](C)[C@H](NC(=O)[C@@H]1CCCN1C(=O)[C@H](CCN)NC(=O)[C@H](CC(C)C)NC(=O)[C@H](CC(N)=O)NC(=O)[C@H](CC(N)=O)NC(=O)[C@H](CO)NC(=O)[C@H](CO)NC(=O)[C@H](Cc1c[nH]cn1)NC(=O)[C@H](CCCNC(=N)N)NC(=O)[C@H](CC(C)C)NC(=O)[C@H](Cc1ccccc1)NC(=O)[C@H](CC(=O)O)NC(=O)[C@H](C)NC(=O)[C@H](CC(C)C)NC(=O)[C@H](CCCNC(=N)N)NC(=O)[C@H](CCC(N)=O)NC(=O)[C@@H](NC(=O)[C@H](C)NC(=O)[C@@H]1CSSC[C@H](NC(=O)[C@H](CCCCN)NC(=O)CC[C@H](NC(=O)CCCCCCCCCCCCCCCCCCC(=O)O)C(=O)O)C(=O)N[C@@H](CC(N)=O)C(=O)N[C@@H]([C@@H](C)O)C(=O)N[C@@H](C)C(=O)N[C@@H]([C@@H](C)O)C(=O)N1)[C@@H](C)O)C(=O)N[C@@H](CC(C)C)C(=O)N1CCC[C@H]1C(=O)N1CCC[C@H]1C(=O)N[C@H](C(=O)N[C@@H](CC(N)=O)C(=O)N[C@H](C(=O)NCC(=O)N[C@@H](CO)C(=O)N[C@@H](CC(N)=O)C(=O)N[C@H](C(=O)N1CCC[C@H]1C(N)=O)[C@@H](C)O)C(C)C)[C@@H](C)O [PD169] ({C20 diacid-γGlu}-KCNTATCATQRLADFLRHSSNNL[Dab]PILPPTNVGSNTP-NH2; disulfide 2-7 (inferred)) |
| 0.033 nM | CC[C@H](C)[C@H](NC(=O)[C@H](CCCCNC(=O)COCCOCCNC(=O)COCCOCCNC(=O)CC[C@H](NC(=O)CCCCCCCCCCCCCCCCC(=O)O)C(=O)O)NC(=O)CNC(=O)[C@H](CC(C)C)NC(=O)[C@H](CC(N)=O)NC(=O)[C@H](CC(N)=O)NC(=O)[C@H](CO)NC(=O)[C@H](CO)NC(=O)[C@H](Cc1c[nH]cn1)NC(=O)[C@H](CCCNC(=N)N)NC(=O)[C@H](CC(C)C)NC(=O)[C@H](Cc1ccccc1)NC(=O)[C@H](CC(=O)O)NC(=O)[C@H](C)NC(=O)[C@H](CC(C)C)NC(=O)[C@H](CCCNC(=N)N)NC(=O)[C@H](CCC(N)=O)NC(=O)[C@@H](NC(=O)[C@H](C)NC(=O)[C@@H]1CSSC[C@H](NC(=O)[C@@H](N)CCCNC(=N)N)C(=O)N[C@@H](CC(N)=O)C(=O)N[C@@H]([C@@H](C)O)C(=O)N[C@@H](C)C(=O)N[C@@H]([C@@H](C)O)C(=O)N1)[C@@H](C)O)C(=O)N[C@@H](CC(C)C)C(=O)N1CCC[C@H]1C(=O)N1CCC[C@H]1C(=O)N[C@H](C(=O)N[C@@H](CC(N)=O)C(=O)N[C@H](C(=O)NCC(=O)N[C@@H](CO)C(=O)N[C@@H](CC(N)=O)C(=O)N[C@H](C(=O)N1C[C@H](O)C[C@H]1C(N)=O)[C@@H](C)O)C(C)C)[C@@H](C)O [PD105] (H-RCNTATCATQRLADFLRHSSNNLGK([AEEA-AEEA-γGlu-C18 diacid])ILPPTNVGSNT[Hyp]-NH2; disulfide 2-7) |
| 0.131 nM | CC[C@H](C)[C@H](NC(=O)[C@@H]1CCCN1C(=O)[C@H](CCCCNC(=O)CC[C@H](NC(=O)CCCCCCCCCCCCCCCCCCC(=O)O)C(=O)O)NC(=O)[C@H](CC(C)C)NC(=O)[C@H](CC(N)=O)NC(=O)[C@H](CC(N)=O)NC(=O)[C@H](CO)NC(=O)[C@H](CO)NC(=O)[C@H](Cc1c[nH]cn1)NC(=O)[C@H](CCCNC(=N)N)NC(=O)[C@H](CC(C)C)NC(=O)[C@H](Cc1ccccc1)NC(=O)[C@H](CC(=O)O)NC(=O)[C@H](C)NC(=O)[C@H](CC(C)C)NC(=O)[C@H](CCCNC(=N)N)NC(=O)[C@H](CCC(N)=O)NC(=O)[C@@H](NC(=O)[C@H](C)NC(=O)[C@@H]1CSSC[C@H](NC(=O)[C@@H](N)CC(=O)O)C(=O)N[C@@H](CC(N)=O)C(=O)N[C@@H]([C@@H](C)O)C(=O)N[C@@H](C)C(=O)N[C@@H]([C@@H](C)O)C(=O)N1)[C@@H](C)O)C(=O)N[C@@H](CC(C)C)C(=O)N1CCC[C@H]1C(=O)N1CCC[C@H]1C(=O)N[C@H](C(=O)N[C@@H](CC(N)=O)C(=O)N[C@H](C(=O)NCC(=O)N[C@@H](CO)C(=O)N[C@@H](CC(N)=O)C(=O)N[C@H](C(=O)N1C[C@H](O)C[C@H]1C(N)=O)[C@@H](C)O)C(C)C)[C@@H](C)O [PD079] (H-DCNTATCATQRLADFLRHSSNNLK([γGlu-C20 diacid])PILPPTNVGSNT[Hyp]-NH2; disulfide 2-7) |
| 0.027 nM | CC[C@H](C)[C@H](NC(=O)[C@@H]1CCCN1C(=O)[C@H](CCCCNC(=O)CC[C@H](NC(=O)CCCCCCCCCCCCCCCCC(=O)O)C(=O)O)NC(=O)[C@H](CC(C)C)NC(=O)[C@H](CC(N)=O)NC(=O)[C@H](CC(N)=O)NC(=O)[C@H](CO)NC(=O)[C@H](CO)NC(=O)[C@H](Cc1c[nH]cn1)NC(=O)[C@H](CCCNC(=N)N)NC(=O)[C@H](CC(C)C)NC(=O)[C@H](Cc1ccccc1)NC(=O)[C@H](CC(=O)O)NC(=O)[C@H](C)NC(=O)[C@H](CC(C)C)NC(=O)[C@H](CCCNC(=N)N)NC(=O)[C@H](CCC(N)=O)NC(=O)[C@@H](NC(=O)[C@H](C)NC(=O)[C@@H]1CSSC[C@H](NC(=O)[C@@H](N)CCCNC(=N)N)C(=O)N[C@@H](CC(N)=O)C(=O)N[C@@H]([C@@H](C)O)C(=O)N[C@@H](C)C(=O)N[C@@H]([C@@H](C)O)C(=O)N1)[C@@H](C)O)C(=O)N[C@@H](CC(C)C)C(=O)N1CCC[C@H]1C(=O)N1CCC[C@H]1C(=O)N[C@H](C(=O)N[C@@H](CC(N)=O)C(=O)N[C@H](C(=O)NCC(=O)N[C@@H](CO)C(=O)N[C@@H](CC(N)=O)C(=O)N[C@H](C(=O)N1C[C@H](O)C[C@H]1C(N)=O)[C@@H](C)O)C(C)C)[C@@H](C)O [PD107] (H-RCNTATCATQRLADFLRHSSNNLK([γGlu-C18 diacid])PILPPTNVGSNT[Hyp]-NH2; disulfide 2-7) |
| 0.008 nM | CC[C@H](C)[C@H](NC(=O)[C@@H]1CCCN1C(=O)CNC(=O)[C@H](CCCCNC(=O)COCCOCCNC(=O)CC[C@H](NC(=O)CCCCCCCCCCCCCCCCC(=O)O)C(=O)O)NC(=O)[C@H](CC(N)=O)NC(=O)[C@H](CC(N)=O)NC(=O)[C@H](CO)NC(=O)[C@H](CO)NC(=O)[C@H](Cc1c[nH]cn1)NC(=O)[C@H](CCCNC(=N)N)NC(=O)[C@H](CC(C)C)NC(=O)[C@H](Cc1ccccc1)NC(=O)[C@H](CC(=O)O)NC(=O)[C@H](C)NC(=O)[C@H](CC(C)C)NC(=O)[C@H](CCCNC(=N)N)NC(=O)[C@H](CCC(N)=O)NC(=O)[C@@H](NC(=O)[C@H](C)NC(=O)[C@@H]1CSSC[C@H](NC(=O)[C@@H](N)CCCNC(=N)N)C(=O)N[C@@H](CC(N)=O)C(=O)N[C@@H]([C@@H](C)O)C(=O)N[C@@H](C)C(=O)N[C@@H]([C@@H](C)O)C(=O)N1)[C@@H](C)O)C(=O)N[C@@H](CC(C)C)C(=O)N1CCC[C@H]1C(=O)N1CCC[C@H]1C(=O)N[C@H](C(=O)N[C@@H](CC(N)=O)C(=O)N[C@H](C(=O)NCC(=O)N[C@@H](CO)C(=O)N[C@@H](CC(N)=O)C(=O)N[C@H](C(=O)N1C[C@H](O)C[C@H]1C(N)=O)[C@@H](C)O)C(C)C)[C@@H](C)O [PD111] (H-RCNTATCATQRLADFLRHSSNNK([AEEA-γGlu-C18 diacid])GPILPPTNVGSNT[Hyp]-NH2; disulfide 2-7) |
